# Numbered stars: 1 amine (or outer) side, 2 acyl side, 3 side chain; on linkers, the order of the positions; unused ones are H or OH. Bridge positions count the residues as written; N and C are the ends. Square brackets hold non-standard residues; d marks the D form. Peptide text beside a SMILES is read from it. * marks the point of attachment. ξ: configuration not given here. Orn(4R-OH,5R-OCH2CH2NMe3+) = C[N+](C)(C)CCO[C@@H](N[*:3])[C@H](O)C[C@H](N[*:1])C(=O)[*:2]; pTerphenylCO(4''-OnC5H11) = CCCCCOc1ccc(-c2ccc(-c3ccc(C(=O)*)cc3)cc2)cc1; hTyr(3S-OH,4S-OH) = N[C@H](C(=O)O)[C@H](O)[C@@H](O)c1ccc(O)cc1; X1 = C[C@H]1CN([*:1])C(C(=O)[*:2])C1O; Hyp = O=C(O)[C@@H]1C[C@@H](O)CN1; ξT = CC(O)C(N)C(=O)O
# How the values were obtained:
# [1] = Pharmacokinetic profile in mice after subcutaneous dose; type: in vivo; details: mouse, plasma, 10 mg/kg SC
# [2] = tested on: A. fumigatus (ATCC 13073); assay: Disseminated infection of immune competent DBA/2 mice, prophylaxis, survival; type: in vivo, Aspergillus fumigatus
# Protocol: A. fumigatus (ATCC 13073) growth was taken from 96 hour potato dextrose agar (PDA) and re-suspended in 0.1% Tween 20. The culture was resuspended in 1 mL cold PBS (>1.0×10^8 CFU/mL, OD620 2.3-2.8). The culture was then diluted in PBS to final cellular densities of 1.0×10^7 CFU/mL. The actual colony counts were determined by plating dilutions on PDA plates to confirm inoculation concentration. The actual inoculum count was 1.30×10^7 CFU/mL.
# Groups of 6 immune competent female DBA/2 mice weighing 18±2 g were used. On Day 0, animals were inoculated (0.1 mL/mouse) by intravenous (IV) injection into the tail vein with A. fumigatus (ATCC 13073), 1.30×10^6 CFU per mouse. CD101 at 3, 10 and 30 mg/kg as prophylaxis was administered subcutaneously (SC) once starting 5, 3 or 1 day before inoculation. In addition, CD101 at 3 mg/kg SC and the reference, amphotericin B, at 3 mg/kg by intraperitoneal (IP) injection were administered one hour after infection (See Table 2).
# A 50 percent or more (≥50%) increase in the survival rate compared to the vehicle control group indicates significant anti-infective activity. The health observations including body weight, hunched posture, ruffled fur, immobility and hypothermia were recorded daily for 14 days.
# [3] = Early pharmacokinetic studies, SC tolerability; type: in vivo, rats and monkeys; details: lower doses (≤5 mg/kg)
# [4] = type: in vivo, Wistar rats
# Protocol: Endpoints. The rats were monitored at a frequency appropriate for their clinical condition. Rat weights were recorded at least once daily to ensure animals remained within ethical limits.
# Reduction in weight and general loss of condition due to estradiol treatment are also typical in this rat model. Colonization with C. albicans was determined by quantitative culture of daily vaginal lavage samples. Rats were euthanized 9 days post infection and C. albicans determined by quantitative culture of vaginal tissue (including uterine horns).
# [5] = Single-dose plasma pharmacokinetics in mice, IP; type: in vivo; details: IP doses of 1, 4, 16 and 64 mg/kg; for half-life: read-out: elimination half-life, range
# Protocol: Pharmacokinetics. […] Plasma from groups of three mice per time point (1, 3, 6, 12, 24, 48, and 72-h) was collected. The plasma drug concentrations were determined by liquid chromatography-tandem mass spectrometry. A noncompartmental model was used in the pharmacokinetic analysis. Elimination half-life was calculated by nonlinear least-squares technique. The area under the concentration-time curve (AUC) was calculated by the trapezoidal rule. Pharmacokinetic exposures for doses not directly measured in the PK study were estimated by linear extrapolation for higher and lower dose levels and by interpolation for dose levels within the dose range studied given the linear PK results. Protein binding was 99.2%.
# A. fumigatus ATCC 13073 = assay: Disseminated aspergillosis in neutropenic ICR mice (Example 14), treatment and prophylaxis; type: in vivo, Aspergillus fumigatus
# Protocol: Disseminated aspergillosis: ICR mice (6/grp) were made neutropenic by cyclophosphamide on Days −3 (270 mg/kg), +1 and +4 (90 mg/kg). IV infection with A. fumigatus ATCC 13073 (10^4 CFU/mouse) on Day 0. […] Survival monitored for a 10 days. Same model was used for prophylaxis except CD101 was dosed on Days −1, −3 or −5.
structure (smiles),measurement,setting,value
"CCCCCOc1ccc(-c2ccc(-c3ccc(C(=O)N[C@H]4C[C@@H](O)[C@@H](OCC[N+](C)(C)C)NC(=O)C5C(O)[C@@H](C)CN5C(=O)[C@H]([C@@H](C)O)NC(=O)[C@H]([C@H](O)[C@@H](O)c5ccc(O)cc5)NC(=O)[C@@H]5C[C@@H](O)CN5C(=O)C(C(C)O)NC4=O)cc3)cc2)cc1 (stereo partly drawn) [CD101] ({pTerphenylCO(4''-OnC5H11)}-[Orn(4R-OH,5R-OCH2CH2NMe3+)][ξT][Hyp][hTyr(3S-OH,4S-OH)]T[X1]; lactam 1-C)",half-life,[1],~25 h
same,bioavailability,[1]; read-out: absolute bioavailability,~50%
same,14-day survival,[2]; 3 mg/kg SC 1 hour after infection,significant increase in the 14-day survival
same,"symptoms of infection (body weight, hunched posture, ruffled fur, immobility, hypothermia)","[2]; 3, 10 and 30 mg/kg SC on Day −5, −3 and −1",improved
same,increase in the 14-day survival compared to the vehicle group,"[2]; SC: 3 mg/kg Day −1, 10 mg/kg Day −5, −3, −1, 30 mg/kg Day −5, −3, −1",50%
same,tolerability of subcutaneous administration,[3],well-tolerated
same,tolerability,[4]; all treatment doses and durations,well tolerated with no adverse events observed
same,weight loss,"[4]; ovariectomised, estradiol-treated rats",did not seem to be exacerbated
same,AUC,"[5]; ICR Swiss/CD1, mouse, read-out: AUC0-, range",93.2 to 40500 µg·h/mL
same,Cmax,"[5]; ICR Swiss/CD1, mouse, read-out: Peak (Cmax) levels, range",2600 to 76700 ng/mL
same,half-life,"[5]; ICR Swiss/CD1, mouse",28 to 41 h
same,half-life,[5]; mouse,29 to 41 h
same,survival,A. fumigatus ATCC 13073; prophylaxis,100%
same,survival,"A. fumigatus ATCC 13073; prophylaxis, single 5 mg/kg given up to 5 days prior to infection",improved survival depending on day given
same,survival,"A. fumigatus ATCC 13073; treatment, IV/IP at 0.2, 1 or 5 mg/kg BID×5 d, vs vehicle",significant increase in survival compared to vehicle
same,survival,"A. fumigatus ATCC 13073; treatment, single 2 mg/kg vs 0.2 mg/kg BID×5 d",Survival was comparable
